In patent US7468391B2, “Methods for treating retinoid responsive disorders using selective inhibitors of CYP26A and CYP26B” (Allergan, Inc., priority 2003, dated 2008):

Legend:
RAR β [1] = target: T1, RAR β (Homo sapiens, UniProt P10826); assay: RAR β Kd; type: binding; conditions: Table 3
T1 sequence (P10826 1-455): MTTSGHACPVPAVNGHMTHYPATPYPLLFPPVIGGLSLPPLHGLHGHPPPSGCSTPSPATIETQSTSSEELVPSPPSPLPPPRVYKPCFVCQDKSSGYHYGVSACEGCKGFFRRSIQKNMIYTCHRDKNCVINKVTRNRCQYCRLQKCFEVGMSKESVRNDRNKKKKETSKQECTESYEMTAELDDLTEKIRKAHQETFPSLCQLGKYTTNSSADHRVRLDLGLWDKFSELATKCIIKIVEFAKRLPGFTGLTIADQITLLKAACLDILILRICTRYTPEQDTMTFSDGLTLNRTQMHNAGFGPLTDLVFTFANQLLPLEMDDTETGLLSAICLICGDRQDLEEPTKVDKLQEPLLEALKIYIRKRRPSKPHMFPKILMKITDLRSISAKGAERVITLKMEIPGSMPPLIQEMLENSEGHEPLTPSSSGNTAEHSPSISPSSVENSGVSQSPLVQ

CYP26A (P450RAI-1) = target: T2, CYP26A (P450RAI-1) (Homo sapiens, UniProt O43174); assay: Cell-based inhibition of RA metabolism in CYP26A stably transfected HeLa cells; conditions: for IC50: Table 3, stably transfected HeLa cells, [3H]-RA, 3 hours at 37° C., read-out: CYP26A Intact cells IC50
T2 construct: expressed in transfected cells; host or cells: HeLa
T2 sequence (O43174 1-497): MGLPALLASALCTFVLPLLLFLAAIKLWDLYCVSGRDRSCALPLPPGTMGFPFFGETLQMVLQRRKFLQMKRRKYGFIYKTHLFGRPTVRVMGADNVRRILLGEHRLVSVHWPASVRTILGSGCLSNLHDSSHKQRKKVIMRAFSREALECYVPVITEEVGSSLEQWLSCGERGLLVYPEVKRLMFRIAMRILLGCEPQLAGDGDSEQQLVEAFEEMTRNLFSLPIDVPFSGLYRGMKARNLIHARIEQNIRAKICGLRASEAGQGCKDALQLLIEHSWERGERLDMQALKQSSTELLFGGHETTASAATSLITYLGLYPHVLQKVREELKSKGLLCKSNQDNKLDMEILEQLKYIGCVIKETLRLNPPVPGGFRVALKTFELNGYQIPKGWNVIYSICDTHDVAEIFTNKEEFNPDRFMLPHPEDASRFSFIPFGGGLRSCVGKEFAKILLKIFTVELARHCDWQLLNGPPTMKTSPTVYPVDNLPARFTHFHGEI
Summary of the method: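 Stably transfected HeLa cells (5×10^5/well) in MEM with 10% FBS and 0.05 μCi [3H]-RA, compounds at 10, 1 or 0.1 μM final, 3 h at 37° C. Retinoids extracted by modified Bligh-Dyer (methylene chloride); aqueous radioactivity counted; ID50 for 50% inhibition of RA metabolism derived from log-transformed data.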

RAR β [2] = target: T1, RAR β; assay: RAR β EC50/(efficacy); type: cell-based; conditions: Table 3
RAR γ = target: T3, RAR γ (Homo sapiens, UniProt P13631); assay: RAR γ Kd; type: binding; conditions: Table 3
T3 sequence (P13631 1-454): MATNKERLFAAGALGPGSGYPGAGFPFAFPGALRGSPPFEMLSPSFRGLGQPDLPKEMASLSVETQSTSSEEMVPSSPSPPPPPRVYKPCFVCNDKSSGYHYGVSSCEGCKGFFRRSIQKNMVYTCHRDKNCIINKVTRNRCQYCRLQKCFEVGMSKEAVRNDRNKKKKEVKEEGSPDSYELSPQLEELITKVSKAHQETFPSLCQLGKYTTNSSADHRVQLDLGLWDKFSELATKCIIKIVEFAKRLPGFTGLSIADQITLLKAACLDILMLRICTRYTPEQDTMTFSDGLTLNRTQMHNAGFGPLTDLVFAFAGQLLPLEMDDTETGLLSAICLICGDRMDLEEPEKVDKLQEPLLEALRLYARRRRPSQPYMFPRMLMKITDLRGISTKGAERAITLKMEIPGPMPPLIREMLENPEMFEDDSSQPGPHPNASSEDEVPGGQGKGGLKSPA

RAR α = target: T4, RAR α (Homo sapiens, UniProt P10276); assay: RAR α Kd; type: binding; conditions: Table 3
T4 sequence (P10276 1-462): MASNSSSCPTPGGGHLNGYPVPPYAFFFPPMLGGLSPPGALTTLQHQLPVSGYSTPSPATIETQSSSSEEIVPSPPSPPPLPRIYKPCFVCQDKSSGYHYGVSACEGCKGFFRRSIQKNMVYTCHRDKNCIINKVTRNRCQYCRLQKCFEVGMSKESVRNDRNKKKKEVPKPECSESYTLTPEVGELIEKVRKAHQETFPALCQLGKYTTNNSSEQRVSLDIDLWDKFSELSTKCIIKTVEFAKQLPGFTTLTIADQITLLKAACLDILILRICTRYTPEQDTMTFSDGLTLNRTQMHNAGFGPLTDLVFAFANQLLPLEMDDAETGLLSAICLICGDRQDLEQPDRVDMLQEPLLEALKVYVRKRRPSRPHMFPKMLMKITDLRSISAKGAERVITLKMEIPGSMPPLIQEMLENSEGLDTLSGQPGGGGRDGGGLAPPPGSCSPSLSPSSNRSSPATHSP

Structure (SMILES) | Kd (RAR β [1]) [µM] | IC50 (CYP26A (P450RAI-1)) [µM] | selectivity for CYP26A relative to CYP26B (CYP26A (P450RAI-1); ratio of ID50 values) | RAR β (EFFICACY) (RAR β [2]) | Kd (RAR γ) [µM] | Kd (RAR α) [µM]
CN(C1CC1)C1CCC(C)(C)c2cc(C#Cc3ccc(C(C)(C)C(=O)O)cc3)ccc21 (centres unmarked) [AGN 198790] | > 10 | 0.6 | at least 10 fold | < 5 | > 10 | > 10
CN(Cc1cccc(C#Cc2ccc(/C=C/C(=O)O)cc2)c1)C1CC1 [AGN 199713] | > 10 | > 10 | – | 25 | > 10 | > 10
